Key:
Format in all cases: physicochemical
[1] = Toluene inclusion (precipitation of the cyclodextrin-toluene complex); conditions: 100 mg of sample dissolved in water, 20 μl toluene added to notice precipitation
Procedure: From 4.7 g β-cyclodextrin (dry), an oxidised cyclodextrin was prepared as described in Example 1, using 10 ml 2.0 M NaOCl solution, 150 mg NaBr and 80 mg 4-acetamido-TEMPO. The ratio acid/aldehyde was derived from the sodium hydroxide consumption and also experimentally determined. According to calculation, 6.3 mmol acid and 6.9 mmol aldehyde were produced. […] The reaction mixture was concentrated in vacuum to about 120 ml. […] Precipitation of the oxidised cyclodextrin-toluene complex started slowly i.e. after 10 minutes it was visible that a precipitate was formed. After 5 hours the process of precipitation formation seemed to be finished.
The same experiment was repeated with an acidified solution (pH 3). Here precipitation started immediately after mixing. The process was complete within one hour.
From 4.7 g β-cyclodextrin (dry) an oxidised cyclodextrin was prepared as described in Example 1, using 5 ml 2.0 M NaOCl solution, 150 mg NaBr and 4-acetamido-TEMPO. The ratio acid/aldehyde was derived from the sodium hydroxide consumption and also experimentally determined. According to calculation 2.2 mmol acid and 5.7 mmol aldehyde were produced. […] The reaction mixture was concentrated in vacuum to about 120 ml. […] Precipitation of the oxidised cyclodextrin-toluene complex started immediately and after one hour the process of precipitation formation appeared to be finished.

[2] = Adsorption of phenolphthalein by oxidised β-cyclodextrin (absorption at 553 nm); conditions: sample 1 mg/ml in sodium carbonate buffer pH 10.3 mixed with 10 μl 0.1% phenolphthalein in ethanol
Procedure: Five grams of β-cyclodextrin (CAVAMAX® W7 from Wacker-CHEMIE GMBH) on dry weight basis was dissolved in 300 ml of demi-water, and 22.4 ml of a 0.032 M 4-acetamido TEMPO solution was; added. Subsequently, β-cyclodextrin was oxidised by addition of sodium hypochlorite. Batches were prepared with theoretically one, two and three anhydroglucose units fully oxidised per cyclodextrin molecule (average) per β-cyclodextrin molecule using sodium hypochlorite. The pH was kept constant during reaction by addition of 0.5 M NaOH, controlled by a pH stat (Metrohm). After completion of the oxidation, the aldehyde groups were reduced with sodium borohydride. The respective batches were concentrated in a rotary evaporator, and subsequently freeze-dried. The freeze-dried material was washed in a methanol/water mixture to remove salts and 4-acetamido-TEMPO. The batches were finally washed with acetone and dried in an oven at 50° C. The inclusion properties were investigated (see Table 1).

[3] = Menthone inclusion (precipitation of the complex); conditions: 100 mg of sample dissolved in water, 20 μl menthone added to notice precipitation

OC[C@H]1O[C@@H]2O[C@H]3[C@H](O)[C@@H](O)[C@@H](O[C@H]4[C@H](O)[C@@H](O)[C@@H](O[C@H]5[C@H](O)[C@@H](O)[C@@H](O[C@H]6[C@H](O)[C@@H](O)[C@@H](O[C@H]7[C@H](O)[C@@H](O)[C@@H](O[C@H]8[C@H](O)[C@@H](O)[C@@H](O[C@H]1[C@H](O)[C@H]2O)O[C@@H]8CO)O[C@@H]7CO)O[C@@H]6CO)O[C@@H]5CO)O[C@@H]4CO)O[C@@H]3CO [Example 0, β-cyclodextrin]
Toluene inclusion ([1]; Table 1): Yes | Toluene inclusion ([1]; Table 2): Yes | Phenolphthalein Absorption (at γ = 553 nm) ([2]; Table 1): 0.025 | Phenolphthalein Absorption (at γ = 553 nm) ([2]; Table 2, solution without cyclodextrin Abs. = 0.65): 0.025 | Menthone inclusion ([3]; Table 1): Yes | Menthone inclusion ([3]; Table 2): Yes
